Measured values: patent US12234230B2, “Substituted benzyl-triazole compounds for Cbl-b inhibition, and further uses thereof” (Nurix Therapeutics, Inc., priority 2019, dated 2025)

Assays:
[1] = target: T1, Cbl-b (Homo sapiens (Human), UniProt Q13191); assay: Cbl-b displacement assay (Cbl-b inhibition assay), Biological Example 1; assay type: binding; details: 0.125 nM Cbl-b final concentration (Low); read-out: Cbl-b activity IC50 (Low)
Procedure: (§1) The ability of candidate compounds to displace a known inhibitor and thereby inhibit Cbl-b activity was measured by monitoring the interaction of Cbl-b with a fluorophore-labeled probe in the presence of the candidate compound.
Following the one hour incubation, the plates were read for TR-FRET signal at 520/620 nm using an Envision plate reader (Perkin Elmer).

[2] = target: T1, Cbl-b; assay: Cbl-b displacement assay (Cbl-b inhibition assay), Biological Example 8; assay type: binding; details: 0.125 nM Cbl-b final concentration (Low); Table 8-1
Procedure: (§2) Candidate compounds were evaluated for their ability to bind and inhibit Cbl-b, an E3 ubiquitin-protein ligase, as evidenced by their ability to displace a fluorophore-labeled probe bound to Cbl-b.
as §1
(§3) Fluorescently-labeled inhibitor probe was synthesized and tagged with BODIPY FL. […] Following the one hour incubation, the plates were read for TR-FRET signal at 520/620 nm using an Envision plate reader (Perkin Elmer).
(§4) The resulting data for the Cbl-b activity assays were analyzed using standard methods to determine the IC50 values for the tested compounds.

[3] = tested on: primary human total T-cells; assay: Primary human total T-cell activation (IL-2 secretion, CD25 surface staining), Biological Example 12; details: fold change over baseline, Table 12-1
Procedure: Peripheral blood mononuclear cells (PBMC) were obtained either: 1) by using Ficoll-Paque™ (GE Healthcare) for separation of peripheral blood hematopoietic cells from buffy coats of healthy human donors; or 2) directly from LeukoPak donations. […] The cells were rested overnight at 37° C. 5% CO2. The Cbl-inhibitor was added to 1×10^5 cells per well and the plate was incubated for one hour at 37° C. in 5% CO2 at the concentrations indicated (Table 12-1) with a final DMSO concentration of <0.1%. For samples stimulated with anti-CD3 antibody and anti-CD28 antibody (anti-CD3/anti-CD28), the Cbl-b inhibitor concentrations tested were 1 μM, and 0.3 μM. For samples stimulated with anti-CD3 antibody alone (anti-CD3), the Cbl-b inhibitor concentrations tested were 3 μM, and 1 μM. […] To prepare plates with plate bound anti-CD3 antibody (OKT3), 96-well round bottom tissue culture plates were coated with 100 μL of anti-CD3 antibody (OKT3) at 10 μg/mL for 4 hours at 37° C. 5% CO2 in phosphate buffered saline (PBS). […] Cells were stimulated for 48 hours prior to harvesting the cell free supernatant and staining the cell population for surface marker assessment by flow cytometry. Supernatants were analyzed for cytokine secretion, including IL-2 by ELISA (R&D Systems, Peprotech or Life Technologies) or Luminex multiplex kits (Procarta Life Technologies) following the manufacturer's protocol. Cells were stained with anti-CD25 antibody (BD Biosciences) to assess levels of surface marker of activation.
Readouts were reported as fold change over baseline. Baseline for this study was the measurement obtained from total human T-cells stimulated with anti-CD3 antibody and with soluble anti-CD28 antibody, wherein the cells were not incubated with a Cbl-b inhibitor (Table 12-1). […] For T-cells stimulated with anti-CD3 alone, changes greater than 0.1-fold over baseline for IL-2 secretion and greater than 0.6-fold over baseline for CD25 surface staining were considered significant and a positive response.

[4] = tested on: primary human total T-cells; assay: Primary human total T-cell activation (IL-2 secretion, CD25 surface staining), Biological Example 9; details: fold change over baseline, Table 9-1
Procedure: Peripheral blood mononuclear cells (PBMC) were obtained either: 1) by using Ficoll-Paque™ (GE Healthcare) for separation of peripheral blood hematopoietic cells from buffy coats of healthy human donors; or 2) directly from LeukoPak donations. […] The cells were rested overnight at 37° C. 5% CO2. The Cbl-inhibitor was added to 1×10^5 cells per well and the plate was incubated for one hour at 37° C. in 5% CO2 at the concentrations indicated (Table 9-1) with a final DMSO concentration of <0.1%. For samples stimulated with anti-CD3 antibody and anti-CD28 antibody (anti-CD3/anti-CD28), the Cbl-b inhibitor concentrations tested were 1 μM, and 0.3 μM. For samples stimulated with anti-CD3 antibody alone (anti-CD3), the Cbl-b inhibitor concentrations tested were 3 μM, and 1 μM. […] To prepare plates with plate bound anti-CD3 antibody (OKT3), 96-well round bottom tissue culture plates were coated with 100 μL of anti-CD3 antibody (OKT3) at 10 μg/mL for 4 hours at 37° C. 5% CO2 in phosphate buffered saline (PBS). […] Cells were stimulated for 48 hours prior to harvesting the cell free supernatant and staining the cell population for surface marker assessment by flow cytometry. Supernatants were analyzed for cytokine secretion, including IL-2 by ELISA (R&D Systems, Peprotech or Life Technologies) or Luminex multiplex kits (Procarta Life Technologies) following the manufacturer's protocol. Cells were stained with anti-CD25 antibody (BD Biosciences) to assess levels of surface marker of activation.
Readouts were reported as fold change over baseline. Baseline for this study was the measurement obtained from total human T-cells stimulated with anti-CD3 antibody and with soluble anti-CD28 antibody, wherein the cells were not incubated with a Cbl-b inhibitor (Table 9-1). […] For T-cells stimulated with anti-CD3 alone, changes greater than 0.1-fold over baseline for IL-2 secretion and greater than 0.6-fold over baseline for CD25 surface staining were considered significant and a positive response.

[5] = target: T1, Cbl-b; assay: Cbl-b displacement assay (Cbl-b inhibition assay), Biological Example 11; assay type: binding; details: 0.125 nM Cbl-b final concentration (Low); Table 11-1
Procedure: as §2, §1, §3, §4

[6] = tested on: primary human total T-cells; assay: Primary human total T-cell activation (IL-2 secretion, CD25 surface staining), Biological Example 2; details: fold change over baseline
Procedure: Peripheral blood mononuclear cells (PBMC) were obtained either: 1) by using Ficoll-Paque™ (GE Healthcare) for separation of peripheral blood hematopoietic cells from buffy coats of healthy human donors; or 2) directly from LeukoPak donations. […] The cells were rested overnight at 37° C. 5% CO2. The Cbl-inhibitor was added to 1×10^5 cells per well and the plate was incubated for one hour at 37° C. in 5% CO2 at the concentrations indicated (Table 3) with a final DMSO concentration of <0.1%. For samples stimulated with anti-CD3 antibody and anti-CD28 antibody (anti-CD3/anti-CD28), the Cbl-b inhibitor concentrations tested were 1 μM, and 0.3 μM. For samples stimulated with anti-CD3 antibody alone (anti-CD3), the Cbl-b inhibitor concentrations tested were 3 μM, and 1 μM. […] To prepare plates with plate bound anti-CD3 antibody (OKT3), 96-well round bottom tissue culture plates were coated with 100 μL of anti-CD3 antibody (OKT3) at 10 μg/mL for 4 hours at 37° C. 5% CO2 in phosphate buffered saline (PBS). […] Cells were stimulated for 48 hours prior to harvesting the cell free supernatant and staining the cell population for surface marker assessment by flow cytometry. Supernatants were analyzed for cytokine secretion, including IL-2 by ELISA (R&D Systems, Peprotech or Life Technologies) or Luminex multiplex kits (Procarta Life Technologies) following the manufacturer's protocol. Cells were stained with anti-CD25 antibody (BD Biosciences) to assess levels of surface marker of activation.
Readouts were reported as fold change over baseline. Baseline for this study was the measurement obtained from total human T-cells stimulated with anti-CD3 antibody and with soluble anti-CD28 antibody, wherein the cells were not incubated with a Cbl-b inhibitor (Table 3).

[7] = 0.3 μM inhibitor, anti-CD3 and anti-CD28 co-stimulation
[8] = 1 μM inhibitor, anti-CD3 and anti-CD28 co-stimulation
[9] = 1 μM inhibitor, anti-CD3 stimulation alone
[10] = 3 μM inhibitor, anti-CD3 stimulation alone

T1 sequence (Q13191 36-427): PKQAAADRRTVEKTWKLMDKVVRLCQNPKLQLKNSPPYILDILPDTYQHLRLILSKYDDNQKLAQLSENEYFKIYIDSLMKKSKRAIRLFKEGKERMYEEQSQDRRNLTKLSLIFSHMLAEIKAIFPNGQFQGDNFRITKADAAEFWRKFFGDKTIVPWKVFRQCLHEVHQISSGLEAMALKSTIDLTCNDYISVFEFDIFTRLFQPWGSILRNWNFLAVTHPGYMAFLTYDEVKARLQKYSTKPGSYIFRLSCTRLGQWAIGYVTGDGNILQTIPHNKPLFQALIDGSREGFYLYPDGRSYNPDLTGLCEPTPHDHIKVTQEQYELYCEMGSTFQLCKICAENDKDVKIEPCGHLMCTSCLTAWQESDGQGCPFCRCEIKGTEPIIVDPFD

## C[C@H]1CCCN(Cc2cc3c(c(C(F)(F)F)c2)CN(c2cccc(C4(c5nncn5C)CC5(CC5)C4)c2)C3=O)C1 [Compound 42, 6-[[(3S)-3-methyl-1-piperidyl]methyl]-2-[3-[5-(4-methyl-1,2,4-triazol-3-yl)spiro[2.3]hexan-5-yl]phenyl]-4-(trifluoromethyl)isoindolin-1-one]
[1]
  IC50: < 5 nM
[2]
  IC50: < 1 nM
[3]; [7]
  IL-2 secretion CD3/CD28 0.3 μM: A (A indicates >15 fold)
[3]; [8]
  IL-2 secretion CD3/CD28 1 μM: A (A indicates >15 fold)
[3]; [9]
  IL-2 secretion CD3 1 μM: A (A indicates >0.66 fold)
[3]; [10]
  IL-2 secretion CD3 3 μM: A (A indicates >0.66 fold)
[4]; [7]
  IL-2 secretion CD3/CD28 0.3 μM: A (A indicates >15 fold)
[4]; [8]
  IL-2 secretion CD3/CD28 1 μM: A (A indicates >15 fold)
[4]; [9]
  IL-2 secretion CD3 1 μM: A (A indicates >0.66 fold)
[4]; [10]
  IL-2 secretion CD3 3 μM: A (A indicates >0.66 fold)
[5]
  IC50: < 1 nM
[6]; [7]
  CD25 staining CD3/CD28 0.3 μM: B (B indicates 1.24-1.39 fold)
  IL-2 secretion CD3/CD28 0.3 μM: B (B indicates 20-35 fold)
[6]; [8]
  CD25 staining CD3/CD28 1 μM: B (B indicates 1.24-1.39 fold)
  IL-2 secretion CD3/CD28 1 μM: A (A indicates >35 fold)
[6]; [9]
  CD25 staining CD3 1 μM: A (A indicates >2.5 fold)
  IL-2 secretion CD3 1 μM: A (A indicates >1.1 fold)
[6]; [10]
  CD25 staining CD3 3 μM: A (A indicates >2.5 fold)
  IL-2 secretion CD3 3 μM: A (A indicates >1.1 fold)
